Reference: the NIST ThermoML archive (doi:10.1021/je0202073)

Assays:
[1] = excess molar enthalpy (molar enthalpy of mixing); xn = mol fraction of the nth substance listed; conditions: 101.3 kPa, Liquid, Calvet calorimetry
[2] = xn = mol fraction of the nth substance listed; conditions: 101.3 kPa, Liquid

CC(C)(C)O [2-methylpropan-2-ol] + CCOC(C)=O
Conditions	excess molar enthalpy [kJ/mol]	excess molar volume [m3/mol]
[1], 299.15 K, x2 = 0.0546	0.376	–
[1], 299.15 K, x2 = 0.1163	0.746	–
[1], 299.15 K, x2 = 0.181	1.1	–
[1], 299.15 K, x2 = 0.2456	1.39	–
[1], 299.15 K, x2 = 0.3079	1.61	–
[1], 299.15 K, x2 = 0.3672	1.77	–
[1], 299.15 K, x2 = 0.4207	1.86	–
[1], 299.15 K, x2 = 0.4707	1.92	–
[1], 299.15 K, x2 = 0.5157	1.94	–
[1], 299.15 K, x2 = 0.5541	1.93	–
[1], 299.15 K, x2 = 0.564	1.93	–
[1], 299.15 K, x2 = 0.6199	1.86	–
[1], 299.15 K, x2 = 0.68	1.73	–
[1], 299.15 K, x2 = 0.7438	1.53	–
[1], 299.15 K, x2 = 0.8091	1.25	–
[1], 299.15 K, x2 = 0.8769	0.887	–
[1], 299.15 K, x2 = 0.9385	0.489	–
[1], 318.15 K, x2 = 0.0538	0.334	–
[1], 318.15 K, x2 = 0.1146	0.688	–
[1], 318.15 K, x2 = 0.1733	1	–
[1], 318.15 K, x2 = 0.2313	1.29	–
[1], 318.15 K, x2 = 0.2953	1.51	–
[1], 318.15 K, x2 = 0.3487	1.66	–
[1], 318.15 K, x2 = 0.3987	1.76	–
[1], 318.15 K, x2 = 0.4461	1.83	–
[1], 318.15 K, x2 = 0.4878	1.86	–
[1], 318.15 K, x2 = 0.5176	1.87	–
[1], 318.15 K, x2 = 0.5676	1.86	–
[1], 318.15 K, x2 = 0.6236	1.79	–
[1], 318.15 K, x2 = 0.6844	1.66	–
[1], 318.15 K, x2 = 0.7436	1.47	–
[1], 318.15 K, x2 = 0.8108	1.19	–
[1], 318.15 K, x2 = 0.8797	0.828	–
[1], 318.15 K, x2 = 0.9442	0.433	–
[2], 303.15 K, x2 = 0.0458	–	1.14e-06
[2], 303.15 K, x2 = 0.0972	–	2.65e-06
[2], 303.15 K, x2 = 0.1702	–	4.43e-06
[2], 303.15 K, x2 = 0.1982	–	4.99e-06
[2], 303.15 K, x2 = 0.2483	–	5.78e-06
[2], 303.15 K, x2 = 0.2718	–	6.12e-06
[2], 303.15 K, x2 = 0.3074	–	6.6e-06
[2], 303.15 K, x2 = 0.3613	–	7.08e-06
[2], 303.15 K, x2 = 0.3973	–	7.3e-06
[2], 303.15 K, x2 = 0.4626	–	7.52e-06
[2], 303.15 K, x2 = 0.5178	–	7.55e-06
[2], 303.15 K, x2 = 0.5274	–	7.54e-06
[2], 303.15 K, x2 = 0.5449	–	7.51e-06
[2], 303.15 K, x2 = 0.5624	–	7.48e-06
[2], 303.15 K, x2 = 0.5722	–	7.42e-06
[2], 303.15 K, x2 = 0.5885	–	7.35e-06
[2], 303.15 K, x2 = 0.5998	–	7.3e-06
[2], 303.15 K, x2 = 0.6022	–	7.27e-06
[2], 303.15 K, x2 = 0.6086	–	7.2e-06
[2], 303.15 K, x2 = 0.6124	–	7.17e-06
[2], 303.15 K, x2 = 0.6336	–	7.06e-06
[2], 303.15 K, x2 = 0.6501	–	6.87e-06
[2], 303.15 K, x2 = 0.7084	–	6.24e-06
[2], 303.15 K, x2 = 0.7732	–	5.29e-06
[2], 303.15 K, x2 = 0.8111	–	4.6e-06
[2], 303.15 K, x2 = 0.8533	–	3.72e-06
[2], 303.15 K, x2 = 0.8915	–	2.84e-06
[2], 303.15 K, x2 = 0.9686	–	8.6e-07
[2], 318.15 K, x2 = 0.0796	–	2.37e-06
[2], 318.15 K, x2 = 0.1377	–	3.7e-06
[2], 318.15 K, x2 = 0.1899	–	4.83e-06
[2], 318.15 K, x2 = 0.2558	–	6.14e-06
[2], 318.15 K, x2 = 0.2985	–	6.84e-06
[2], 318.15 K, x2 = 0.3703	–	7.44e-06
[2], 318.15 K, x2 = 0.4344	–	7.86e-06
[2], 318.15 K, x2 = 0.4633	–	7.93e-06
[2], 318.15 K, x2 = 0.5377	–	7.95e-06
[2], 318.15 K, x2 = 0.5626	–	7.87e-06
[2], 318.15 K, x2 = 0.6284	–	7.55e-06
[2], 318.15 K, x2 = 0.6913	–	7e-06
[2], 318.15 K, x2 = 0.767	–	5.96e-06
[2], 318.15 K, x2 = 0.8516	–	4.18e-06
[2], 318.15 K, x2 = 0.8891	–	3.61e-06
[2], 318.15 K, x2 = 0.9294	–	2.37e-06

CCCC(=O)OCC [ethyl butanoate] + CC(C)(C)O
Conditions	excess molar enthalpy [kJ/mol]	excess molar volume [m3/mol]
[1], 299.15 K, x1 = 0.0438	0.252	–
[1], 299.15 K, x1 = 0.0937	0.516	–
[1], 299.15 K, x1 = 0.1461	0.779	–
[1], 299.15 K, x1 = 0.1991	1.04	–
[1], 299.15 K, x1 = 0.2541	1.24	–
[1], 299.15 K, x1 = 0.3061	1.41	–
[1], 299.15 K, x1 = 0.3568	1.55	–
[1], 299.15 K, x1 = 0.4053	1.64	–
[1], 299.15 K, x1 = 0.4331	1.7	–
[1], 299.15 K, x1 = 0.4818	1.74	–
[1], 299.15 K, x1 = 0.5387	1.75	–
[1], 299.15 K, x1 = 0.6024	1.71	–
[1], 299.15 K, x1 = 0.6746	1.6	–
[1], 299.15 K, x1 = 0.7522	1.39	–
[1], 299.15 K, x1 = 0.833	1.05	–
[1], 299.15 K, x1 = 0.9172	0.599	–
[1], 318.15 K, x1 = 0.0394	0.293	–
[1], 318.15 K, x1 = 0.0951	0.577	–
[1], 318.15 K, x1 = 0.158	0.851	–
[1], 318.15 K, x1 = 0.2201	1.09	–
[1], 318.15 K, x1 = 0.2807	1.31	–
[1], 318.15 K, x1 = 0.3377	1.46	–
[1], 318.15 K, x1 = 0.385	1.57	–
[1], 318.15 K, x1 = 0.4267	1.64	–
[1], 318.15 K, x1 = 0.4576	1.69	–
[1], 318.15 K, x1 = 0.4628	1.69	–
[1], 318.15 K, x1 = 0.4938	1.72	–
[1], 318.15 K, x1 = 0.5386	1.74	–
[1], 318.15 K, x1 = 0.5934	1.71	–
[1], 318.15 K, x1 = 0.6595	1.62	–
[1], 318.15 K, x1 = 0.7407	1.41	–
[1], 318.15 K, x1 = 0.8336	1.04	–
[1], 318.15 K, x1 = 0.9223	0.57	–
[2], 303.15 K, x1 = 0.0445	–	9.2e-07
[2], 303.15 K, x1 = 0.0966	–	2.08e-06
[2], 303.15 K, x1 = 0.1518	–	3.11e-06
[2], 303.15 K, x1 = 0.1999	–	3.83e-06
[2], 303.15 K, x1 = 0.2466	–	4.41e-06
[2], 303.15 K, x1 = 0.3111	–	5.13e-06
[2], 303.15 K, x1 = 0.3504	–	5.6e-06
[2], 303.15 K, x1 = 0.4043	–	5.91e-06
[2], 303.15 K, x1 = 0.4468	–	6.09e-06
[2], 303.15 K, x1 = 0.4837	–	6.11e-06
[2], 303.15 K, x1 = 0.5015	–	6.11e-06
[2], 303.15 K, x1 = 0.5259	–	6.07e-06
[2], 303.15 K, x1 = 0.5538	–	5.99e-06
[2], 303.15 K, x1 = 0.6004	–	5.74e-06
[2], 303.15 K, x1 = 0.6399	–	5.5e-06
[2], 303.15 K, x1 = 0.663	–	5.23e-06
[2], 303.15 K, x1 = 0.7129	–	4.83e-06
[2], 303.15 K, x1 = 0.7538	–	4.33e-06
[2], 303.15 K, x1 = 0.7934	–	3.77e-06
[2], 303.15 K, x1 = 0.8465	–	2.99e-06
[2], 303.15 K, x1 = 0.9017	–	2e-06
[2], 303.15 K, x1 = 0.9614	–	8.2e-07
[2], 318.15 K, x1 = 0.0604	–	1.83e-06
[2], 318.15 K, x1 = 0.1099	–	2.85e-06
[2], 318.15 K, x1 = 0.1559	–	3.63e-06
[2], 318.15 K, x1 = 0.2141	–	4.45e-06
[2], 318.15 K, x1 = 0.265	–	5.17e-06
[2], 318.15 K, x1 = 0.2982	–	5.41e-06
[2], 318.15 K, x1 = 0.3386	–	5.74e-06
[2], 318.15 K, x1 = 0.39	–	6.14e-06
[2], 318.15 K, x1 = 0.4477	–	6.44e-06
[2], 318.15 K, x1 = 0.4595	–	6.5e-06
[2], 318.15 K, x1 = 0.4778	–	6.53e-06
[2], 318.15 K, x1 = 0.4982	–	6.55e-06
[2], 318.15 K, x1 = 0.4996	–	6.56e-06
[2], 318.15 K, x1 = 0.5163	–	6.56e-06
[2], 318.15 K, x1 = 0.5222	–	6.55e-06
[2], 318.15 K, x1 = 0.5936	–	6.38e-06
[2], 318.15 K, x1 = 0.6597	–	6.03e-06
[2], 318.15 K, x1 = 0.7011	–	5.73e-06
[2], 318.15 K, x1 = 0.745	–	5.15e-06
[2], 318.15 K, x1 = 0.7968	–	4.5e-06
[2], 318.15 K, x1 = 0.8396	–	3.81e-06
[2], 318.15 K, x1 = 0.8701	–	3.15e-06
[2], 318.15 K, x1 = 0.9283	–	2.01e-06
